Data published in ChEMBL document CHEMBL1145883, “Lysine sulfonamides as novel HIV-protease inhibitors: optimization of the Nepsilon-acyl-phenyl spacer” (Bioorg Med Chem Lett, 2003).

What was measured:
[1] = target: Human immunodeficiency virus type 1 protease (Human immunodeficiency virus 1, UniProt Q72874); assay: Inhibitory activity against HIV-1 protease
[2] = test system: Human immunodeficiency virus 1; assay: Antiviral activity; type: functional, organism-based

| SMILES | Ki [1] [nM] | EC50 [2] [nM] |
| --- | --- | --- |
| Cc1ccc(S(=O)(=O)N(CC(C)C)[C@@H](CCCCNC(=O)CNc2ccccc2)C(=O)O)cc1 | 7.8 |  |
| Cc1ccc(S(=O)(=O)N(CC(C)C)[C@@H](CCCCNC(=O)CN(Cc2ccccc2)c2ccccc2)C(=O)O)cc1 | 0.72 |  |
| Cc1ccc(S(=O)(=O)N(CC(C)C)[C@H](CO)CCCCNC(=O)CN(c2ccccc2)C(C)C)cc1 | 16 | 1100 |
| Cc1ccc(S(=O)(=O)N(CC(C)C)[C@@H](CCCCNC(=O)CS(=O)(=O)c2ccccc2)C(=O)O)cc1 | 20 |  |
| Cc1ccc(S(=O)(=O)N(CC(C)C)[C@@H](CCCCNC(=O)OCc2ccccc2)C(=O)O)cc1 | > 300 |  |
| CC(C)CN([C@H](CO)CCCCNC(=O)CN(Cc1ccccc1)c1ccccc1)S(=O)(=O)c1ccc(N)cc1 | 2.4 |  |
| Cc1ccc(S(=O)(=O)N(CC(C)C)[C@@H](CCCCNC(=O)N(Cc2ccccc2)Cc2ccccc2)C(=O)O)cc1 | 8 |  |
| Cc1ccc(S(=O)(=O)N(CC(C)C)[C@H](CO)CCCCNC(=O)CN(Cc2ccccc2)c2ccccc2)cc1 | 7.6 | 4200 |
| Cc1ccc(S(=O)(=O)N(CC(C)C)[C@H](CO)CCCCNC(=O)CN(c2ccccc2)c2ccccc2)cc1 | 12 | 6700 |
| Cc1ccc(S(=O)(=O)N(CC(C)C)[C@@H](CCCCNC(=O)[C@@H](O)Cc2ccccc2)C(=O)O)cc1 | 6.2 |  |
| Cc1ccc(S(=O)(=O)N(CC(C)C)[C@H](CO)CCCCNC(=O)CN(Cc2cccc(N)c2)c2ccccc2)cc1 | 7.6 | 3000 |
| Cc1ccc(S(=O)(=O)N(CC(C)C)[C@@H](CCCCNC(=O)C(=O)Cc2ccccc2)C(=O)O)cc1 | 14 |  |
| Cc1ccc(S(=O)(=O)N(CC(C)C)[C@@H](CCCCNC(=O)NCc2ccccc2)C(=O)O)cc1 | 32 |  |
| Cc1ccc(S(=O)(=O)N(CC(C)C)[C@@H](CCCCNC(=O)c2ccccc2)C(=O)O)cc1 | > 300 |  |
| CC(C)CN([C@H](CO)CCCCNC(=O)CN(Cc1cccc(N)c1)c1ccccc1)S(=O)(=O)c1ccc(N)cc1 | 6.9 | 524 |
| CC(C)CN([C@H](CO)CCCCNC(=O)CN(Cc1cccc([N+](=O)[O-])c1)c1ccccc1)S(=O)(=O)c1ccc(N)cc1 | 1.2 | 339 |
| Cc1ccc(S(=O)(=O)N(CC(C)C)[C@@H](CCCCNC(=O)CCc2ccccc2)C(=O)O)cc1 | 6.9 |  |
| Cc1ccc(S(=O)(=O)N(CC(C)C)[C@@H](CCCCNC(=O)Cc2ccccc2)C(=O)O)cc1 | > 300 |  |
| COc1cccc(CN(CC(=O)NCCCC[C@@H](CO)N(CC(C)C)S(=O)(=O)c2ccc(C)cc2)c2ccccc2)c1OC | 2.4 | 760 |
| CN[C@@H](Cc1ccccc1)C(=O)NCCCC[C@@H](C(=O)O)N(CC(C)C)S(=O)(=O)c1ccc(C)cc1 | 2.1 |  |
| Cc1ccc(S(=O)(=O)N(CC(C)C)[C@H](CO)CCCCNC(=O)CN(Cc2cccc([N+](=O)[O-])c2)c2ccccc2)cc1 | 1.4 | 730 |
| COc1ccc(CN(CC(=O)NCCCC[C@@H](CO)N(CC(C)C)S(=O)(=O)c2ccc(N)cc2)c2ccccc2)cc1 | 2.4 |  |

| SMILES | Ki [1] [nM] | EC50 [2] [nM] |
| --- | --- | --- |
| CC(C)CN([C@H](CO)CCCCNC(=O)CN(Cc1ccc([N+](=O)[O-])cc1)c1ccccc1)S(=O)(=O)c1ccc(N)cc1 | 0.59 | 540 |
| Cc1ccc(S(=O)(=O)N(CC(C)C)[C@@H](CCCCNC(=O)/C=C/c2ccccc2)C(=O)O)cc1 | > 300 |  |
| COc1ccc(CN(CC(=O)NCCCC[C@@H](CO)N(CC(C)C)S(=O)(=O)c2ccc(C)cc2)c2ccccc2)cc1 | 7.3 | > 10000 |
| Cc1ccc(S(=O)(=O)N(CC(C)C)[C@@H](CCCCNC(=O)CCCc2ccccc2)C(=O)O)cc1 | > 300 |  |
| COc1ccc(CN(CC(=O)NCCCC[C@@H](CO)N(CC(C)C)S(=O)(=O)c2ccc(N)cc2)c2ccccc2)cc1OC | 2.9 | 366 |
| Cc1ccc(S(=O)(=O)N(CC(C)C)[C@H](CO)CCCCNC(=O)CN(CCc2ccccc2)c2ccccc2)cc1 | 52 | > 10000 |
| Cc1ccc(S(=O)(=O)N(CC(C)C)[C@@H](CCCCNC(=O)[C@@H](N)Cc2ccccc2)C(=O)O)cc1 | 1.5 |  |
| Cc1ccc(S(=O)(=O)N(CC(C)C)[C@@H](CCCCNC(=O)N(C)Cc2ccccc2)C(=O)O)cc1 | 55 |  |
| Cc1ccc(S(=O)(=O)N(CC(C)C)[C@@H](CCCCNC(=O)CN(C)c2ccccc2)C(=O)O)cc1 | 12 |  |
| CC(C)CN([C@H](CO)CCCCNC(=O)CN(Cc1cccc(F)c1)c1ccccc1)S(=O)(=O)c1ccc(N)cc1 | 1.1 | 1100 |
| Cc1ccc(S(=O)(=O)N(CC(C)C)[C@@H](CCCCNC(=O)C(c2ccccc2)c2ccccc2)C(=O)O)cc1 | 171 |  |
| Cc1ccc(S(=O)(=O)N(CC(C)C)[C@@H](CCCCNC(=O)COc2ccccc2)C(=O)O)cc1 | 18 |  |
| Cc1ccc(S(=O)(=O)N(CC(C)C)[C@@H](CCCCNC(=O)C2CC2c2ccccc2)C(=O)O)cc1 (stereo partly specified) | > 300 |  |
| Cc1ccc(S(=O)(=O)N(CC(C)C)[C@H](CO)CCCCNC(=O)CN(Cc2ccccc2[N+](=O)[O-])c2ccccc2)cc1 | 3.9 | 3500 |
| Cc1ccc(S(=O)(=O)N(CC(C)C)[C@@H](CCCCNC(=O)CSc2ccccc2)C(=O)O)cc1 | 18 |  |
| COc1ccc(CN(CC(=O)NCCCC[C@@H](CO)N(CC(C)C)S(=O)(=O)c2ccc(C)cc2)c2ccccc2)cc1OC | 3.5 | 1300 |
| CC(C)CN([C@H](CO)CCCCNC(=O)CN(Cc1ccccc1[N+](=O)[O-])c1ccccc1)S(=O)(=O)c1ccc(N)cc1 | 1.5 | 341 |
| COc1cccc(CN(CC(=O)NCCCC[C@@H](CO)N(CC(C)C)S(=O)(=O)c2ccc(N)cc2)c2ccccc2)c1OC |  | 340 |
| CC(C)CN([C@H](CO)CCCCNC(=O)CN(Cc1ccccc1F)c1ccccc1)S(=O)(=O)c1ccc(N)cc1 | 2.3 | 2200 |
| CC(C)CN([C@H](CO)CCCCNC(=O)CN(Cc1ccc(F)cc1)c1ccccc1)S(=O)(=O)c1ccc(N)cc1 | 2.3 | 1000 |
| Cc1ccc(S(=O)(=O)N(CC(C)C)[C@@H](CCCCNC(=O)C(Cc2ccccc2)C(C)(C)C)C(=O)O)cc1 (stereo partly specified) | > 300 |  |
